The source of these data is patent US8648081B2 (Eli Lilly and Company, priority 2011, dated 2014).

The assay deals with Lone star tick larvae (Amblyomma americanum). Put plainly: In Vitro Larval Immersion Microassay (LIM). Particulars: read-out: % Efficacy (percent larval mortality). As for the experimental part:
In Vitro Larval Immersion Microassay (LIM)
The larval immersion microassay may be conducted as described in White, et al., J. Med. Entomol. […] Briefly, experimental test articles are formulated in dimethylsulfoxide (DMSO) to prepare a stock solution at a concentration of 10 mM. […] Approximately 30-50 Lone star tick larvae (Amblyomma americanum) are submerged into each well containing experimental test articles. After a 30 minute immersion period, larvae are removed with a wide-bore pipette tip in 0.05 ml of fluid, dispensed into a commercial paper tissue biopsy bag which is sealed at the top with a plastic dialysis clip, inverted and allowed to air dry for 60 minutes. Bags containing larvae are then incubated at approximately 27 degrees Celsius and >90% relative humidity. After 24 hours, bags are opened, live and dead larvae are counted and percent larval mortality is calculated as follows: % Efficacy=(# dead larvae)/(# total larvae)×100.

Where two headings read alike, the source gives them in different places.

Regarding `O=C(NC1CCN(CC(F)(F)F)C1=O)c1sc(C2=NOC(c3cc(Cl)c(F)c(Cl)c3)(C(F)(F)F)C2)c2c1CCCC2` (centres unmarked) [Example 82], the mortality (commonly the percentage killed) at 300 µM is no less than 80%.

For `O=C(NC1CCOCC1)c1sc(C2=NOC(c3cc(Cl)c(F)c(Cl)c3)(C(F)(F)F)C2)c2c1CCCC2` (centres unmarked) [Example 83, 3-(5-(3,5-dichloro-4-fluorophenyl)-5-(trifluoromethyl)-4,5-dihydro-isoxazol-3-yl)-N-(tetrahydro-2H-pyran-4-yl)-4,5,6,7-tetrahydro-benzo[c]thiophene-1-carboxamide], the mortality at 300 µM was no less than 80%. Still for that read-out and setting: for `O=C(NC1CCN(C2CC2)C1=O)c1sc(C2=NOC(c3cc(Cl)c(F)c(Cl)c3)(C(F)(F)F)C2)c2c1CCCC2` (centres unmarked) [Example 84, N-(1-cyclopropyl-2-oxopyrrolidin-3-yl)-3-(5-(3,5-dichloro-4-fluorophenyl)-5-(trifluoromethyl)-4,5-dihydroisoxazol-3-yl)-4,5,6,7-tetra-hydrobenzo[c] thiophene-1-carboxamide] the value was no less than 80%; for `O=C1CCC(NC(=O)c2sc(C3=NOC(c4cc(Cl)cc(Cl)c4)(C(F)(F)F)C3)c3c2CCC3)CC1` (centres unmarked) [Example 85, 3-(5-(3,5-dichloro-phenyl)-5-(trifluoro-methyl)-4,5-dihydro-isoxazol-3-yl)-N-(4-oxocyclohexyl)-5,6-dihydro-4H-cyclopenta[c] thiophene-1-carboxamide], no less than 80%; for `O=C(NC1CCN(CC(F)(F)F)C1=O)c1sc(C2=NOC(c3cc(Cl)cc(Cl)c3)(C(F)(F)F)C2)c2c1CCC2` (centres unmarked) [Example 86, 3-(5-(3,5-dichloro-phenyl)-5-(trifluoro-methyl)-4,5-dihydro-isoxazol-3-yl)-N-(2-oxo-1-(2,2,2-trifluoroethyl)pyrrolidin-3-yl)-5,6-dihydro-4H-cyclopenta[c] thiophene-1-carboxamide], no less than 80%. On the same count and under the same terms, the figure for `O=C(N[C@@H]1CCNC1=O)c1sc(C2=NO[C@@](c3cc(Cl)cc(Cl)c3)(C(F)(F)F)C2)c2c1CCCC2` [Example 87b, 3-((S)-5-(3,5-dichlorophenyl)-5-(trifluoromethyl)-4,5-dihydroisoxazol-3-yl)-N—((R)-2-oxopyrrolidin-3-yl)-4,5,6,7-tetrahydrobenzo[c]thiophene-1-carboxamide] is no less than 80%; for `N#CCNC(=O)CNC(=O)c1sc(C2=NOC(c3cc(Cl)cc(Cl)c3)(C(F)(F)F)C2)c2c1CCCC2` (centres unmarked) [Example 94, N-(2-(cyanomethylamino)-2-oxoethyl)-3-(5-(3,5-dichlorophenyl)-5-(trifluoromethyl)-4,5-dihydroisoxazol-3-yl)-4,5,6,7-tetrahydrobenzo[c]thiophene-1-carboxamide] it is no less than 80%; for `C#CCNC(=O)CNC(=O)c1sc(C2=NOC(c3cc(Cl)cc(Cl)c3)(C(F)(F)F)C2)c2c1CCCC2` (centres unmarked) [Example 95, 3-(5-(3,5-dichlorophenyl)-5-(trifluoromethyl)-4,5-dihydroisoxazol-3-yl)-N-(2-oxo-2-(prop-2-ynylamino)ethyl)-4,5,6,7-tetrahydrobenzo [c]thiophene-1-carboxamide] it is no less than 80%. In the case of `N#CCNC(=O)CNC(=O)c1sc(C2=NOC(c3sc(Cl)c(Cl)c3Cl)(C(F)(F)F)C2)c2c1CCCC2` (centres unmarked) [Example 96, N-(2-(cyanomethylamino)-2-oxoethyl)-3-(5-(3,4,5-trichlorothiophen-2-yl)-5-(trifluoromethyl)-4,5-dihydroisoxazol-3-yl)-4,5,6,7-tetrahydro-benzo[c]thiophene-1-carboxamide], where the note is “tested at 300 micromolar, 30 minute immersion, mortality counted after 24 hours”, the mortality at 300 µM is no less than 80%. For `FC(F)(F)C1(c2cc(Cl)cc(Cl)c2)CC(c2cc3ccncc3s2)=NO1` (centres unmarked) [Example 230, 2-[5-(3,5-Dichloro-phenyl)-5-tri-fluoromethyl-4,5-dihydro-isoxazol-3-yl]-thieno[2,3-c] pyridine], the mortality at 300 µM was no less than 80%. On the same count and under the same terms, for `FC(F)(F)C1(c2cc(Cl)cc(Cl)c2)CC(c2cc3cc(Br)cnc3s2)=NO1` (centres unmarked) [Example 231, 5-Bromo-2-[5-(3,5-dichloro-phenyl)-5-trifluoromethyl-4,5-dihydro-isoxazol-3-yl]-thieno[2,3-b]pyridine] the value was no less than 80%.
